These results are taken from patent US6916660B2, “Fluorescent sensor compounds for detecting saccharides” (North Carolina State University, priority 2002, dated 2005).

Read-outs that look alike come from different tables or passages of the source.

Test [1] in a line: Fluorescence titration of sensor compounds with fructose. Format: binding. The note with it: 50% MeOH/0.1 M phosphate buffer pH 7.4, sensor 1×10^−6 M, 25° C. As for the experimental part: (§1) The affinity and selectivity of the fluorescent sensor compounds (7) for glucose were evaluated. Specifically, 2 mL of a solution of each sensor compound (7) in methanol (2×10^−6 M) was mixed with 2 mL of aqueous saccharide phosphate buffer solution (pH 7.4) at various concentrations, and the fluorescence intensity recorded. […] This represents a 43- and 49-fold selectivity over fructose and galactose, respectively. In addition, fluorescence enhancement was very large (about 7-fold).

Test [2] is described as follows: Fluorescence titration of sensor compounds with glucose. Format: binding. Here is the method:
as §1

For another test, the system named is HEPG2 cells. Description: Fluorescent labeling of fixed HEPG2 cells expressing sLex (microscopy, densitometry). It is filed as cell-based. The note with it: 1 μM compound. As for the experimental part: (§2) Cell culture. HEPG2 and COS7 cells were maintained in RPMI media (G. E. Moore et al. (1967) J. Am. Med. Assoc. 199, 519-524) with 10% FBS (GIBCO). HEP3B cells were maintained in RPMI with 10% FBS and 1× sodium pyruvate and 1× non-essential amino acids (GIBCO).
(§3) Fluorescent labeling studies. 6-well plates were seeded with 1×10^6 cells per well and incubated at 37° C. and 5% CO2 for 48 h. The media was removed and cells were washed twice with 1×PBS. The cells were fixed with 1.5 mL of 1:1 methanol/PBS and incubated 20 minutes at 4° C. After incubation, the methanol/PBS solution was removed and cells were washed twice with PBS.
(§4) Diboronic acid compounds 7 were resuspended in 1:1 methanol/PBS and added to wells at 0.5 to 10 μM concentrations. One well was incubated only in methanol/PBS without compound as a negative control. The plates were then incubated in darkness at 4° C. for 45 min. Plates were examined with phase contrast microscopy followed by fluorescent microscopy (blue cube wavelengths 370 nm excitation, 426 nm emission; 20× lens). Plates were photographed using a Nikon DXM1200 digital camera and images captured with the Nikon ACT-1 program (v 2.10). The phase contrast and fluorescent images were then overlaid, organized and labeled using Adobe Photoshop 6.0. The images were quantified with NIH ImageJ 1.28. The units (mean gray value) were subtracted from background, where there are no cells. The fluorescent signal was stable for at least 96 h when cells were maintained in darkness.
(§5) HEPG2, a cell line that selectively expresses sLex on the surface, was selected for examination. To examine the selectivity of the sensor for cell surface sLex, HEP3B and COS7 cells were labeled in parallel. COS7 expresses none of the fucosylated antigens associated with carcinoma progression and HEP3B expresses only the Lewis Y antigen. See B. W. Weston et al. (1992) J. Biol. Chem. 267, 4152-4160; B. W. Weston et al. (1992) J. Biol. Chem. 267, 24575-24584.
(§6) HEPG2 and control cell lines were incubated with compound 7q, while three other diboronic acids (7b, 7d, 7y) were used as controls. […]

Test [3] is described as follows: Fluorescence titration of sensor compounds with galactose. Format: binding. The note with it: 50% MeOH/0.1 M phosphate buffer pH 7.4, sensor 1×10^−6 M, 25° C. As for the experimental part: as §1
A further test concerns HEP3B cells. Description: Fluorescent labeling of fixed HEP3B cells expressing Lewis Y (microscopy, densitometry). To be noted: 1 μM compound. It is filed as cell-based. Here is the method:
as §2, §3, §4, §5, §6

Test [4] is described as follows: Binding of fluorescent compounds 7 to sLex in solution (fluorescence intensity change). The note with it: solution binding studies. Here is the method:
Diboronic acid compounds 7 were designed to show significant fluorescence intensity changes upon binding with a complementary carbohydrate. In screening for their binding with the target carbohydrate, sLex, the fluorescence intensity changes of solutions of the compounds upon addition of the carbohydrate were determined. These experiments were conducted in a mixture of methanol and 0.1 M phosphate buffer (pH 7.4) (1:1, v/v). Methanol was used to improve the solubility of the sensor compounds. The concentration of fluorescent sensor compound (7) (specific structures provided in FIG. 1, above) was fixed at 1×10^−5 or 1×10^−6 M, and the concentration of sLex was set at 60 μM.

Test [5] is described as follows: Solution binding studies with Lewis Y (data not shown).
The conditions of test [6]: Springsteen et al.; cited from earlier work.
For test [7] the following is noted: Springsteen et al.; cited from earlier work. This is another data set of the same source.

Consider `CN(Cc1ccccc1B(O)O)Cc1c2ccccc2c(CN(C)C(=O)Cc2ccccc2CC(=O)N(C)Cc2c3ccccc3c(CN(C)Cc3ccccc3B(O)O)c3ccccc23)c2ccccc12` [Compound 7b], for which the Ka for fructose in [1] worked out at 34 M⁻¹. Also, in test [2] (50% MeOH/0.1 M phosphate buffer pH 7.4, sensor 1×10^−6 M, 25° C.), the Ka for glucose amounted to 1472 M⁻¹. The “glucose concentration region of most sensitive fluorescence intensity changes” value in test [2] (FIG. 8) is “mM region”. Besides, in test [2] (ratio of Ka), the “selectivity for glucose over fructose” value worked out at 43 fold and the “selectivity for glucose over galactose” value is 49 fold. For the same molecule, in [2] (versus phenylboronic acid), the “improvement in affinity for glucose compared with PBA” value is recorded as “about 300 fold” and the “improvement in selectivity for glucose over fructose compared with PBA” value is given as “about 1400 fold”. Further, the “labeling of HEPG2 cells (mean gray value)” value (“labeling of HEPG2 cells” for short) in the test with HEPG2 cells is “did not recognize sLex on HEPG2 cells”. The Ka for galactose in [3] stood at 30 M⁻¹. In addition, in the test on HEP3B cells, the “labeling of HEP3B cells (mean gray value)” value (“labeling of HEP3B cells” below) is listed as “avidly bound Lewis Y-expressing HEP3B cells”.

Consider `CN(Cc1ccccc1B(O)O)Cc1c2ccccc2c(CN(C)C(=O)CCc2ccc(CCC(=O)N(C)Cc3c4ccccc4c(CN(C)Cc4ccccc4B(O)O)c4ccccc34)cc2)c2ccccc12` [Compound 7d], for which the “affinity for sLex in solution” value in [4] was “low affinity”. Further, the “labeling of HEPG2 cells” value with HEPG2 cells was “did not label HEPG2 or HEP3B”. Besides, in test [5], the “affinity for Lewis Y in solution” value is reported as “low affinity”. Moreover, the “labeling of HEP3B cells” value in the test on HEP3B cells was “did not label HEPG2 or HEP3B”.

Turning to `CN(Cc1ccccc1B(O)O)Cc1c2ccccc2c(CN(C)C(=O)CCCCC(=O)N(C)Cc2c3ccccc3c(CN(C)Cc3ccccc3B(O)O)c3ccccc23)c2ccccc12` [Compound 7y], the “labeling of HEPG2 cells” value in the test with HEPG2 cells was “recognized surface sLex and Lewis Y with equal avidity”. Besides, the “labeling of HEP3B cells” value with HEP3B cells is “recognized surface sLex and Lewis Y with equal avidity”.

Consider `OB(O)c1ccccc1` [PBA, phenylboronic acid], for which, in test [6], the Ka for glucose is 5 M⁻¹. Moreover, in test [7], the Ka for fructose was 162 M⁻¹.
